What was measured:
E. cloacae = assay: Antibiotic treatment of E. cloacae tracked by FcMBL ELLecSA detection of MAMPs; conditions: for treatment efficacy from increase or spike in ELLecSA signal over time: 24-hr time course, E. cloacae 10e8 CFU/ml, 1 mg/ml antibiotic; for susceptibility of E. cloacae to the antibiotic: as stated for the test pathogen
[1] = system: clinical isolate of E. coli; assay: Antibiotic treatment of clinical isolate of E. coli, MAMP detection by ELLecSA; format: cell-based; conditions: FIG. 16D strain
Protocol: FIGS. 16A-16E show lysing microbes by antibiotic treatment to increase MAMPs for FcMBL-coated bead capture and ELLecSA detection. In FIG. 16A, FcMBL coated beads were used to detect the presence of MAMPs from a clinical isolate of Enterobacter cloacae after 4 hour treatments of cefepime and meropenem. Detection of MAMPs was done by ELLecSA using rhMBL-hrp. In FIG. 16B, FcMBL coated beads were used to detect the presence of MAMPs from a clinical isolate of Salmonella typhimurium after 4 hour treatments of cefepime. Detection of MAMPs was done by ELLecSA using rhMBL-hrp. In FIG. 16C, FcMBL coated beads were used to detect the presence of MAMPs from a clinical isolate of E. coli after 4 hour treatment of cefepime and amikacin. Detection of MAMPs was done by ELLecSA using rhMBL-hrp. In FIG. 16D, FcMBL coated beads were used to detect the presence of MAMPs from a clinical isolate of E. coli after 4 hour treatment of cefepime and amikacin. Detection of MAMP's was done by ELLecSA using rhMBL-hrp. […]. Time course antibiotics were administered. Optimal MAMP detection occurred at 4 hours with 100 ug/mL cefepime.

[2] = system: amp-C mutant Enterobacter cloacae; assay: Time course antibiotic treatment of amp-C mutant Enterobacter cloacae, MAMP detection by ELLecSA; format: cell-based; conditions: 100 μg/mL antibiotic
E. coli ATCC 8739 = assay: In vivo antibiotic efficacy by ELLecSA in rats infected intraperitoneally; conditions: for ELLecSA levels, increase over baseline (no antibiotic): rats, 2e9 CFU i.p., antibiotic 100 μg/kg at 4 hours, terminal blood draw 8 hours after infection; for ELLecSA signal in treated group vs sham treatment: wistar rats, treatment four hours after infection, blood draw after another four hours

Compound: CO/N=C(\C(=O)N[C@@H]1C(=O)N2C(C(=O)O)=C(CSc3nc(=O)c(=O)[nH]n3C)CS[C@H]12)c1csc(N)n1 [ceftriaxone]
- treatment efficacy from increase or spike in ELLecSA signal over time (E. cloacae): effective
- time to MAMP release after addition of the active antibiotic (E. cloacae; about 5e7 CFU Enterobacter cloacae): ≤ 30 min
- susceptibility of E. cloacae to the antibiotic (E. cloacae): susceptible

Compound: NCC[C@H](O)C(=O)N[C@@H]1C[C@H](N)[C@@H](O[C@H]2O[C@H](CN)[C@@H](O)[C@H](O)[C@H]2O)[C@H](O)[C@H]1O[C@H]1O[C@H](CO)[C@@H](O)[C@H](N)[C@H]1O [amikacin]
- susceptibility of the E. coli strain [1]: sensitive

Compound: Cc1nnc(SCC2=C(C(=O)O)N3C(=O)[C@@H](NC(=O)Cn4cnnn4)[C@H]3SC2)s1 [cefazolin]
- treatment efficacy from increase or spike in ELLecSA signal over time (E. cloacae): ineffective
- susceptibility of E. cloacae to the antibiotic (E. cloacae): resistant

Compound: CC(C)(O/N=C(\C(=O)N[C@@H]1C(=O)N2C(C(=O)[O-])=C(C[n+]3ccccc3)CS[C@H]12)c1csc(N)n1)C(=O)O [ceftazidime]
- susceptibility of amp-C mutant E. cloacae [2]: resistant

Compound: CO/N=C(\C(=O)N[C@@H]1C(=O)N2C(C(=O)[O-])=C(C[N+]3(C)CCCC3)CS[C@H]12)c1csc(N)n1 [cefepime]
- susceptibility of the E. coli strain [1]: intermediate susceptibility
- ELLecSA levels, increase over baseline (no antibiotic) (E. coli ATCC 8739): six
- ELLecSA signal in treated group vs sham treatment (E. coli ATCC 8739): significant increase

Compound: CC(=O)OCC1=C(C(=O)O)N2C(=O)[C@@H](NC(=O)Cc3cccs3)[C@H]2SC1 [Cefalotin]
- susceptibility of E. cloacae to the antibiotic (E. cloacae): naturally resistant

Compound: C[C@@H](O)[C@H]1C(=O)N2C(C(=O)O)=C(S[C@@H]3CN[C@H](C(=O)N(C)C)C3)[C@H](C)[C@H]12 [meropenem]
- ELLecSA levels, increase over baseline (no antibiotic) (E. coli ATCC 8739): 2 fold
- ELLecSA signal in treated group vs sham treatment (E. coli ATCC 8739): significant increase

— US12553892B2, “Assays for antimicrobial activity and applications thereof” (PRESIDENT AND FELLOWS OF HARVARD COLLEGE, priority 2013, dated 2026)
